Literature values as cited in patent publication US20030144252A1, “Combination product comprising a non-steroidal antiandrogen and an egfr tyrosine kinase inhibitor” (priority 2000, published 2003).

Tests used:
[1] = tested on: androgen receptor; conditions: LNCaP prostate cancer cell line
[2] = tested on: LNCaP prostate cancer cell line

Compound | block of HER2/neu protein induced activation of the androgen receptor [1] | block of EGF induced cell growth [2]
CC(C)(O)C(=O)Nc1ccc([N+](=O)[O-])c(C(F)(F)F)c1 [hydroxyflutamide] | could partially block | –
CC(O)(CS(=O)(=O)c1ccc(F)cc1)C(=O)Nc1ccc(C#N)c(C(F)(F)F)c1 (centres unmarked) [bicalutamide, 4′-cyano-3-(4-fluorophenylsulphonyl)-2-hydroxy-2-methyl-3′-(trifluoromethyl)propionanilide] | – | could partially block
